One data set has as its system nitroreductase. The experiment in a line: Fluorescent response of the probe to nitroreductase (NTR) in PBS buffer. Format: biochemical. As to conditions: probe 10 μM, excitation 500 nm. The method, then: 1.5 mg of the solid fluorescent compound, 3-(4-(2-(4′-(diphenylamino)-3-((4-nitrobenzyl)oxy)-[1,1′-biphenyl]-4-yl)vinyl)quinolin-1-ium-1-yl)propane-1-sulfonate (TAE-NQS, prepared in Example 1), was dissolved in 2 mL of DMSO, and prepared into a 1 mM stock solution of the fluorescent compound. Before the test, of the fluorescent compound was diluted with a phosphate buffer (10 mM, pH 7.4), and a solution system to be tested containing 1% DMSO was obtained (final concentration of the probe was 10 μM).
3 μL of the above-mentioned stock solution of the fluorescent compound was drawn, and a blank control sample and test samples were prepared with PBS buffer solution (10 mM, pH=7.4). […] The samples were incubated at 37° C. for 15 minutes, then the absorption spectra ranging from 350 nm to 700 nm were recorded, and the fluorescence spectra were measured under the excitation light of 500 nm. […]
When the concentration of NTR was 2 μg/mL and the concentration of the probe was 10 μM, the fluorescence intensity varied over time, shown as FIG. 7. […] By controlling the temperature to be 37° C. and the incubation time to be 5 minutes, the fluorescence spectra under the excitation wavelength of 500 nm for each test sample were recorded. […]

A short description of data set [1]: Solubility (stated property). Format: physicochemical.
Data set [2] in a line: Photostability (stated property). Format: physicochemical.
A short description of data set [3]: Toxicity (stated property).

The results in this text go back to patent publication US10935498B1, “Fluorescent probe for detecting nitroreductase and preparation method and use thereof in enzymatic reaction” (SOUTH CHINA UNIVERSITY OF TECHNOLOGY, priority 2018, dated 2021).

Molecules are shown by their SMILES.

In the case of `O=[N+]([O-])c1ccc(COc2cc(-c3ccc(N(c4ccccc4)c4ccccc4)cc3)ccc2C=Cc2cc[n+](CCCS(=O)(=O)[O-])c3ccccc23)cc1` [TAE-NQS, 3-(4-(2-(4′-(diphenylamino)-3-((4-nitrobenzyl)oxy)-[1,1′-biphenyl]-4-yl)vinyl)quinolin-1-ium-1-yl)propane-1-sulfonate], the “time in which the enzymatic reaction was completed” value in the data set on nitroreductase (NTR 0 μg/mL to 5 μg/mL, PBS pH 7.4, 37° C.) was no more than 30 min. Moreover, in the data set with nitroreductase (nitroreductase 2 μg/mL, NADH 100 μM, PBS 10 mM pH 7.4, 37° C., 15 minutes), the “fluorescence intensity compared with the blank sample” value is given as “changed significantly”. Besides, in data set [1] (DMSO, DMF), the “solubility in solvents such as DMSO and DMF” value was “easily soluble”. In addition, in data set [1] (water), the solubility in water result is “slightly soluble”. The photostability result in data set [2] is reported as “good”. The toxicity result in data set [3] was “non-toxic”.
